Here are results for twelve molecules from patent US20260217735A1, “HETEROCYCLES AND USES THEREOF” (Kumquat Biosciences Inc., priority 2023, published 2026).

The target in assay [1] is T1, KRAS WT (Homo sapiens, UniProt P01116).
T1 construct: made in house; host or cells: E. coli, e.g. BL21 (DE3)
The assay is described as follows: HTRF assay, wildtype KRAS interaction with SOS1. The assay is classed as biochemical. Conditions: bins <500 nM / 500 nM to 1000 nM, read-out: Inhibition of KRAS WT (IC50). (In general: TR-FRET usually uses a lanthanide donor and a delayed reading to cut background.)

The target of assay [2] is T2, KRAS G12S (Homo sapiens, UniProt P01116, G12S).
T2 construct: made in house; host or cells: E. coli, e.g. BL21 (DE3)
Kind of assay: HTRF assay, KRAS G12S interaction with SOS1. It counts as biochemical. Conditions: bins <500 nM / 500 nM to 1000 nM, read-out: Inhibition of KRAS G12S (IC50).

In assay [3] the test system is MiaPaca2 cells. Kind of assay: Ras cellular assay, growth of cells with K-Ras G12C mutation. It counts as cell-based. Conditions: Homo sapiens, MIA PaCa-2; cell proliferation assay; bins ≤500 nM / >500 nM; read-out: Inhibition of MiaPaca2 Cells (IC50). A digest of the protocol:
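Anchorage-independent growth: G12C-mutant MIA PaCa-2 plated in soft agar, time-zero plate read the next day when compound was dosed (final DMSO 0.3%). After growth to day 10, MTS-type absorbance at 490/660 nm relative to time zero gave IC50 via four-parameter fitting.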

Assay [4] addresses T3, KRAS G12D (Homo sapiens, UniProt P01116, G12D).
T3 construct: made in house; host or cells: E. coli, e.g. BL21 (DE3)
The assay is described as follows: HTRF assay, KRAS G12D interaction with SOS1. Conditions: bins <500 nM / 500 nM to 1000 nM, read-out: Inhibition of KRAS G12D (IC50). It counts as biochemical.

Assay [5] has as its target T4, KRAS G12V (Homo sapiens, UniProt P01116, G12V).
T4 construct: made in house; host or cells: E. coli, e.g. BL21 (DE3)
Kind of assay: HTRF assay, KRAS G12V interaction with SOS1. Conditions: bins <500 nM / 500 nM to 1000 nM, read-out: Inhibition of KRAS G12V (IC50). It counts as biochemical.

Where only a bound is given, the exact number is not on record here.

The IC50 is the midpoint of a concentration-inhibition curve.

T2 sequence (P01116 1-188 isoform P01116-2 G12S): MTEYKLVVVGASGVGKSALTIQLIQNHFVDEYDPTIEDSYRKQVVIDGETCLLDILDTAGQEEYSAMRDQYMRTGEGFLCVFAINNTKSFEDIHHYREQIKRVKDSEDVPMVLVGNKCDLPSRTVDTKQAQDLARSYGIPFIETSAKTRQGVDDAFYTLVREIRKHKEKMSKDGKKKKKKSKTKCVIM
T1 sequence (P01116 1-188 isoform P01116-2): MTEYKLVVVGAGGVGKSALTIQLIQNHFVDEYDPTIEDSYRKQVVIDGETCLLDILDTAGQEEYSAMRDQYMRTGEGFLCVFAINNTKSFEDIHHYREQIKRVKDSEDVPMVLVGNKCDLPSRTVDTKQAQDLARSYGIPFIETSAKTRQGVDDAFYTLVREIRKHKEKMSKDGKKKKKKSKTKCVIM
T3 sequence (P01116 1-188 isoform P01116-2 G12D): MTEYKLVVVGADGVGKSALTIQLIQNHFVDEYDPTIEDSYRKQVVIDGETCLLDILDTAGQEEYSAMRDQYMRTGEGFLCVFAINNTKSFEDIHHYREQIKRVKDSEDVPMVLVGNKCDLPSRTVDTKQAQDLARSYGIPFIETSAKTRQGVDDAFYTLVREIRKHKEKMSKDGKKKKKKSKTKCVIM
T4 sequence (P01116 1-188 isoform P01116-2 G12V): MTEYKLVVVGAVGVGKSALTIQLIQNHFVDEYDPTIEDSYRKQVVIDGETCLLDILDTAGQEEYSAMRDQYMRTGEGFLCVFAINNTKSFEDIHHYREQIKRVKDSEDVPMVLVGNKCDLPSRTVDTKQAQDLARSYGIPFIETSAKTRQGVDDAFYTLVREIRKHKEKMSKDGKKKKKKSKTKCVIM

`C[C@@H]1[C@H](N(C)c2nc(OC[C@@]34CCCN3C[C@H](F)C4)nc3c(F)c(-c4ccc(F)c5sc(N)c(C#N)c45)c(Cl)cc23)CCN1C(=O)n1ccnc1C(F)(F)F` [Compound 194, 2-amino-4-(6-chloro-8-fluoro-2-(((2R,7aS)-2-fluorotetrahydro-1H-pyrrolizin-7a(5H)-yl)methoxy)-4-(methyl((2R,3R)-2-methyl-1-(2-(trifluoromethyl)-1H-imidazole-1-carbonyl)pyrrolidin-3-yl)amino)quinazolin-7-yl)-7-fluorobenzo[b]thiophene-3-carbonitrile]: the IC50 was less than 500 nM in assay [1]; less than 500 nM in assay [2]; no more than 500 nM in assay [3]; less than 500 nM in assay [4]; less than 500 nM in assay [5].
With `CCN(c1nc(OC[C@@]23CCCN2C[C@H](F)C3)nc2c(F)c(-c3cccc4sc(N)c(C#N)c34)c(Cl)cc12)[C@@H]1CCN(C(=O)n2cc(C)nc2C)[C@@H]1C` [Compound 195, 2-amino-4-(6-chloro-4-(((2R,3R)-1-(2,4-dimethyl-1H-imidazole-1-carbonyl)-2-methylpyrrolidin-3-yl)(ethyl)amino)-8-fluoro-2-(((2R,7aS)-2-fluorotetrahydro-1H-pyrrolizin-7a(5H)-yl)methoxy)quinazolin-7-yl)benzo[b]thiophene-3-carbonitrile], the IC50 in assay [1] is less than 500 nM; in assay [2], less than 500 nM; in assay [3] it was no more than 500 nM; in assay [4], less than 500 nM; in assay [5], less than 500 nM.
On to `CCN(c1nc(OC[C@@]23CCCN2C[C@H](F)C3)nc2c(F)c(-c3cc(N)c(F)c(C)c3C(F)(F)F)ncc12)[C@@H]1CCN(C(=O)n2cc(C)nc2C)[C@@H]1C` [Compound 196, ((2R,3R)-3-((7-(5-amino-4-fluoro-3-methyl-2-(trifluoromethyl)phenyl)-8-fluoro-2-(((2R,7aS)-2-fluorotetrahydro-1H-pyrrolizin-7a(5H)-yl)methoxy)pyrido[4,3-d]pyrimidin-4-yl)(ethyl)amino)-2-methylpyrrolidin-1-yl)(2,4-dimethyl-1H-imidazol-1-yl)methanone], for which the IC50 in assay [1] was less than 500 nM; in assay [2] it was less than 500 nM; in assay [3] it was no more than 500 nM; in assay [4] it was 500 to 1000 nM; in assay [5], less than 500 nM.
Take `CC[C@@H]1[C@H](N(C)c2nc(OC[C@@]34CCCN3C[C@H](F)C4)nc3c(F)c(-c4ccc(F)c5sc(N)c(C#N)c45)c(Cl)cc23)CCN1C(=O)n1ccnc1` [Compound 198, 2-amino-4-(6-chloro-4-(((2R,3R)-2-ethyl-1-(1H-imidazole-1-carbonyl)pyrrolidin-3-yl)(methyl)amino)-8-fluoro-2-(((2R,7aS)-2-fluorotetrahydro-1H-pyrrolizin-7a(5H)-yl)methoxy)quinazolin-7-yl)-7-fluorobenzo[b]thiophene-3-carbonitrile]: the IC50 is less than 500 nM in assay [1]; less than 500 nM in assay [2]; no more than 500 nM in assay [3]; less than 500 nM in assay [4]; less than 500 nM in assay [5].
Regarding `C[C@@H]1[C@H](N(C)c2nc(OC[C@@]34CCCN3C[C@H](F)C4)nc3c(F)c(-c4ccc(F)c5sc(N)c(C#N)c45)c(Cl)cc23)CCN1C(=O)n1cnc(C#N)c1` [Compound 199, 1-((2R,3R)-3-((7-(2-amino-3-cyano-7-fluorobenzo[b]thiophen-4-yl)-6-chloro-8-fluoro-2-(((2R,7aS)-2-fluorotetrahydro-1H-pyrrolizin-7a(5H)-yl)methoxy)quinazolin-4-yl)(methyl)amino)-2-methylpyrrolidine-1-carbonyl)-1H-imidazole-4-carbonitrile], the IC50 is less than 500 nM in assay [1]; less than 500 nM in assay [2]; no more than 500 nM in assay [3]; less than 500 nM in assay [4]; less than 500 nM in assay [5].
As for `C[C@@H]1[C@H](N(C)c2nc(OC[C@@]34CCCN3C[C@H](F)C4)nc3c(F)c(-c4ccc(F)c5sc(N)c(C#N)c45)c(C(F)(F)F)cc23)CCN1C(=O)n1ccnc1` [Compound 200, 4-(4-(((2R,3R)-1-(1H-imidazole-1-carbonyl)-2-methylpyrrolidin-3-yl)(methyl)amino)-8-fluoro-2-(((2R,7aS)-2-fluorotetrahydro-1H-pyrrolizin-7a(5H)-yl)methoxy)-6-(trifluoromethyl)quinazolin-7-yl)-2-amino-7-fluorobenzo[b]thiophene-3-carbonitrile], the IC50 is less than 500 nM in assay [1]; less than 500 nM in assay [2]; no more than 500 nM in assay [3]; less than 500 nM in assay [4]; less than 500 nM in assay [5].
In the case of `C[C@@H]1[C@H](N(C)c2nc(OC[C@@]34CCCN3C[C@H](F)C4)nc3c(F)c(-c4ccc(F)c5sc(N)c(C#N)c45)c(Cl)cc23)CCN1C(=O)n1ccnc1C1CC1` [Compound 201, 2-amino-4-(6-chloro-4-(((2R,3R)-1-(2-cyclopropyl-1H-imidazole-1-carbonyl)-2-methylpyrrolidin-3-yl)(methyl)amino)-8-fluoro-2-(((2R,7aS)-2-fluorotetrahydro-1H-pyrrolizin-7a(5H)-yl)methoxy)quinazolin-7-yl)-7-fluorobenzo[b]thiophene-3-carbonitrile], the IC50 was less than 500 nM in assay [1]; less than 500 nM in assay [2]; no more than 500 nM in assay [3]; less than 500 nM in assay [4]; less than 500 nM in assay [5].
In the case of `Cc1c(C#N)ncn1C(=O)N1C[C@]2(CC[C@H](C)N(c3nc(OC[C@@]45CCCN4C[C@H](F)C5)nc4c(F)c(-c5ccc(F)c6sc(N)c(C#N)c56)c(Cl)cc34)C2)[C@H]1C1(C)CC1` [Compound 202, 1-((1R,4R,7S)-6-(7-(2-amino-3-cyano-7-fluorobenzo[b]thiophen-4-yl)-6-chloro-8-fluoro-2-(((2R,7aS)-2-fluorotetrahydro-1H-pyrrolizin-7a(5H)-yl)methoxy)quinazolin-4-yl)-7-methyl-1-(1-methylcyclopropyl)-2,6-diazaspiro[3.5]nonane-2-carbonyl)-5-methyl-1H-imidazole-4-carbonitrile], the IC50 was less than 500 nM in assay [1]; less than 500 nM in assay [2]; no more than 500 nM in assay [3]; less than 500 nM in assay [4]; less than 500 nM in assay [5].
Regarding `CCN(c1nc(OCC2(CN3CC4CCC(C3)O4)CC2)nc2c(F)c(-c3ccc(F)c4sc(N)c(C#N)c34)c(C(F)(F)F)cc12)[C@@H]1CCN(C(=O)n2cnc(Cl)n2)[C@@H]1C` [Compound 204, (4S)-4-(2-((1-((8-oxa-3-azabicyclo[3.2.1]octan-3-yl)methyl)cyclopropyl)methoxy)-4-(((2R,3R)-1-(3-chloro-1H-1,2,4-triazole-1-carbonyl)-2-methylpyrrolidin-3-yl)(ethyl)amino)-8-fluoro-6-(trifluoromethyl)quinazolin-7-yl)-2-amino-7-fluorobenzo[b]thiophene-3-carbonitrile], the IC50 is less than 500 nM in assay [1]; less than 500 nM in assay [2]; no more than 500 nM in assay [3]; less than 500 nM in assay [4]; less than 500 nM in assay [5].
Turning to `C[C@@H]1[C@H](N(C)c2nc(OC[C@@]34CCCN3C[C@H](F)C4)nc3c(F)c(-c4ccc(F)c5sc(N)c(C#N)c45)c(Cl)cc23)CCN1C(=O)n1ccc(C#N)c1` [Compound 205, 1-((2R,3R)-3-((7-(2-amino-3-cyano-7-fluorobenzo[b]thiophen-4-yl)-6-chloro-8-fluoro-2-(((2R,7aS)-2-fluorotetrahydro-1H-pyrrolizin-7a(5H)-yl)methoxy)quinazolin-4-yl)(methyl)amino)-2-methylpyrrolidine-1-carbonyl)-1H-pyrrole-3-carbonitrile], the IC50 in assay [1] was less than 500 nM; in assay [2], less than 500 nM; in assay [3] it was no more than 500 nM; in assay [4], less than 500 nM; in assay [5], less than 500 nM.
With `CCN(c1nc(OC[C@@]23CCCN2C[C@H](F)C3)nc2c(F)c(-c3cc(N)c(F)c(C)c3C(F)(F)F)ncc12)[C@@H]1CCN(C(=O)n2cnc(Cl)n2)[C@@H]1C` [Compound 208, ((2R,3R)-3-((7-(5-amino-4-fluoro-3-methyl-2-(trifluoromethyl)phenyl)-8-fluoro-2-(((2R,7aS)-2-fluorotetrahydro-1H-pyrrolizin-7a(5H)-yl)methoxy)pyrido[4,3-d]pyrimidin-4-yl)(ethyl)amino)-2-methylpyrrolidin-1-yl)(3-chloro-1H-1,2,4-triazol-1-yl)methanone], the IC50 in assay [1] was 500 to 1000 nM; in assay [2], less than 500 nM; in assay [3], no more than 500 nM; in assay [4] it was less than 500 nM; in assay [5] it was less than 500 nM.
With `Cc1cn(C(=O)N2C[C@]3(CC[C@H](C)N(c4nc(OC[C@@]56CCCN5C[C@H](F)C6)nc5c(F)c(-c6ccc(F)c7sc(N)c(C#N)c67)c(Cl)cc45)C3)[C@H]2C2(C)CC2)cn1` [Compound 210, 2-amino-4-(6-chloro-8-fluoro-2-(((2R,7aS)-2-fluorotetrahydro-1H-pyrrolizin-7a(5H)-yl)methoxy)-4-((1R,4R,7S)-7-methyl-2-(4-methyl-1H-imidazole-1-carbonyl)-1-(1-methylcyclopropyl)-2,6-diazaspiro[3.5]nonan-6-yl)quinazolin-7-yl)-7-fluorobenzo[b]thiophene-3-carbonitrile], the IC50 in assay [1] is less than 500 nM; in assay [2] it was less than 500 nM; in assay [3], no more than 500 nM; in assay [4], less than 500 nM; in assay [5] it was less than 500 nM.
